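Values below derive from 48-hour exposures of cells grown in 96-well plates, with endpoints linearly interpolated between the two concentrations bracketing the appropriate inhibition level. TGI: concentration producing complete growth inhibition.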
Tests used:
Experiment in all cases: DTP human tumour cell line panel, 48 h
SK-MEL-2 melanoma = system: SK-MEL-2 melanoma
OVCAR-8 ovarian = system: OVCAR-8 ovarian
786-0 renal = system: 786-0 renal
CCRF-CEM leukemia = system: CCRF-CEM leukemia
NCI-H23 lung = system: NCI-H23 lung
HOP-92 NSCLC = system: HOP-92 NSCLC
M14 melanoma = system: M14 melanoma
RXF 393 renal = system: RXF 393 renal
NCI-H226 lung = system: NCI-H226 lung
EKVX NSCLC = system: EKVX NSCLC
IGROV1 ovarian = system: IGROV1 ovarian
SW-620 colon = system: SW-620 colon
T-47D breast = system: T-47D breast
SNB-75 CNS = system: SNB-75 CNS
HCT-15 colon = system: HCT-15 colon
CAKI-1 renal = system: CAKI-1 renal
U251 CNS = system: U251 CNS
UACC-62 melanoma = system: UACC-62 melanoma
SN12C renal = system: SN12C renal
NCI-H522 lung = system: NCI-H522 lung
A549 NSCLC = system: A549 NSCLC
RPMI-8226 leukemia = system: RPMI-8226 leukemia
MDA-MB-231 breast = system: MDA-MB-231 breast
K-562 leukemia = system: K-562 leukemia
SNB-19 CNS = system: SNB-19 CNS
KM12 colon = system: KM12 colon
NCI/ADR-RES ovarian = system: NCI/ADR-RES ovarian
HL-60(TB) leukemia = system: HL-60(TB) leukemia
SK-OV-3 ovarian = system: SK-OV-3 ovarian
BT-549 breast = system: BT-549 breast
HS 578T breast = system: HS 578T breast
MDA-MB-435 = system: MDA-MB-435
MCF7 breast = system: MCF7 breast
DU-145 prostate = system: DU-145 prostate
HT29 colon = system: HT29 colon
SK-MEL-5 melanoma = system: SK-MEL-5 melanoma
ACHN renal = system: ACHN renal
SF-295 CNS = system: SF-295 CNS
SF-539 CNS = system: SF-539 CNS
NCI-H460 lung = system: NCI-H460 lung
COLO 205 colon = system: COLO 205 colon
OVCAR-5 ovarian = system: OVCAR-5 ovarian
PC-3 prostate = system: PC-3 prostate
UO-31 renal = system: UO-31 renal
UACC-257 melanoma = system: UACC-257 melanoma
MALME-3M melanoma = system: MALME-3M melanoma
MDA-N = system: MDA-N
HCT-116 colon = system: HCT-116 colon
SF-268 CNS = system: SF-268 CNS
SK-MEL-28 melanoma = system: SK-MEL-28 melanoma
OVCAR-3 ovarian = system: OVCAR-3 ovarian
OVCAR-4 ovarian = system: OVCAR-4 ovarian
HCC-2998 colon = system: HCC-2998 colon
HOP-62 NSCLC = system: HOP-62 NSCLC
MOLT-4 leukemia = system: MOLT-4 leukemia
A498 renal = system: A498 renal

Measured: TGI

CC(NC(=O)C(C)C(=O)Nc1ccc(C(F)(F)F)cc1)C(N)=O (centres undefined)
not listed: SK-MEL-28 melanoma | OVCAR-3 ovarian | OVCAR-4 ovarian | HCC-2998 colon | HOP-62 NSCLC | MOLT-4 leukemia | A498 renal
> 100 µM: all other assays above

O=[N+]([O-])C(=C1NCCN1)/C(Cl)=C(/Cl)N1CCOCC1
not listed: HOP-92 NSCLC | RXF 393 renal | IGROV1 ovarian | NCI-H522 lung | HL-60(TB) leukemia | SK-MEL-5 melanoma
> 100 µM: all other assays above

Reference: PubChem BioAssay (NCI)
